Values quoted from earlier work, collected in US20150031700A1, “Methods of Treating Cutaneous Flushing Using Selective Alpha-2-adrenergic Receptor Agonists” (GALDERMA LABORATORIES INC., priority 2003, published 2015).

Tests used:
α2 adrenergic receptor [1] = settings: α2 vs α1 adrenergic receptor, compared with clonidine
[2] = toxicity studies; Walters, 1996
α2 adrenergic receptor [3] = settings: compared with clonidine; Burke et al., 1996

Molecule: Brc1c(NC2=NCCN2)ccc2nccnc12 [brimonidine]
- selectivity for the α2 adrenergic receptor relative to clonidine (α2 adrenergic receptor [1]): 7-12 fold

Molecule: brimonidine tartrate
- oncogenic or teratogenic activity [2]: no oncogenic or teratogenic activity
- toxicity [2]: nontoxic
- α2 adrenergic receptor activity relative to clonidine (α2 adrenergic receptor [3]): 10 fold
